Values after ≈ are worked out from the molar mass of the structure shown. Like-named read-outs stand apart in the source and are kept apart here.
Tests used:
Lung Cancer A549 = experiment: MTT cytotoxicity assay, A549; format: cell-based; conditions: Homo sapiens, 48 h, read-out: IC50 (µM) ± SEM, Lung Cancer A549
Experimental: (§1) Cytotoxic activities of the synthesized derivatives were screened against leukemia (HL60), liver (HepG2), breast (MCF-7), and lung (A549) cancer cell lines and non-cancerous THLE2 and WISH cells at different concentrations [0.01–100 µM] for 48 h using the MTT assay (Table 1).
(§2) Human promyelocytic leukemia ”HL-60”, human hepatocellular carcinoma “HepG2”, human breast cancer “MCF-7”, human lung cancer “A549” cell lines, and two normal cell lines, THLE-2 as normal adult liver epithelial cells and WISH as normal epithelial cells, were obtained from American Type Culture Collection “Rockville, MD, USA”.
(§3) According to the manufacturer’s protocol, the cells were seeded in 96-well plates at a concentration of 5 × 10^4 cells per well (200 µL). Different concentrations of the tested compounds were used to test the cytotoxicity. […] A non-linear regression of curve fit was used to calculate the IC50.

Leukemia Cancer HL60 = experiment: MTT cytotoxicity assay, HL60; format: cell-based; conditions: Homo sapiens, HL-60, 48 h, read-out: IC50 (µM) ± SEM, Leukemia Cancer HL60
Experimental: as §1, §2, §3

Breast Cancer MCF-7 = experiment: MTT cytotoxicity assay, MCF-7; format: cell-based; conditions: Homo sapiens, MCF7, 48 h, read-out: IC50 (µM) ± SEM, Breast Cancer MCF-7
Experimental: as §1, §2, §3

Liver Cancer HepG2 = experiment: MTT cytotoxicity assay, HepG2; format: cell-based, human; conditions: read-out: IC50 (µM) ± SEM, Liver Cancer HepG2
Experimental: as §1, §2, §3

Normal Liver THLE2 = experiment: MTT cytotoxicity assay, normal THLE2; format: cell-based; conditions: Homo sapiens, THLE-2, 48 h, read-out: IC50 (µM) ± SEM, Normal Liver THLE2
Experimental: as §1, §2, §3

HepG2 [1] = conditions: ref [37]; cited from earlier work
colon cancer HCC-2998 = system: colon cancer HCC-2998; parameters: method as in PMID 21439691; conditions: ref [39]; cited from earlier work
leukemia CCRF-CEM = system: leukemia CCRF-CEM; parameters: method as in PMID 21439691; conditions: ref [39]; cited from earlier work
[2] = system: non-small-cell lung cancer HOP-92; parameters: method as in PMID 21439691; conditions: ref [39]; cited from earlier work
[3] = system: promyelocytic leukemia cell line (HL60); parameters: method as in PMID 19322800; conditions: ref [38]; cited from earlier work
HepG2 [4] = system: HepG2; parameters: method as in PMID 24148965, PMID 26890810; conditions: ref [41],[43]; read-out: IC50 on HepG2 (apoptotic effect); cited from earlier work

Cc1cc(=O)oc2cc(O)ccc12 [Compound 3, 7-Hydroxy-4-methylcoumarin]
IC50 (Lung Cancer A549): 16.5 ± 1.98 µM
IC50 (Leukemia Cancer HL60): 42.55 ± 0.22 µM
IC50 (Breast Cancer MCF-7): 29.3 ± 1.02 µM
IC50 (Liver Cancer HepG2; Homo sapiens, HepG2, 48 h): 95.7 ± 1.13 µM

O=C(O)/C=C/c1ccccc1 [Compound 6, cinnamic acid]
IC50 (Lung Cancer A549): 27.6 ± 1.95 µM
IC50 (Leukemia Cancer HL60): 88.21 ± 0.51 µM
IC50 (Breast Cancer MCF-7): 28.6 ± 0.91 µM
IC50 (Liver Cancer HepG2; Homo sapiens, HepG2, 48 h): 36.58 ± 0.19 µM

Cc1cc(=O)oc2cc(OC(=O)/C=C/c3ccccc3)ccc12 [Compound 8a, (2E)-4-Methyl-2-oxo-2H-chromen-7-yl Cinnamate]
melting point: 96 °C
IC50 (Lung Cancer A549): 19.6 ± 0.89 µM
IC50 (Leukemia Cancer HL60): 34.8 ± 0.64 µM
IC50 (Breast Cancer MCF-7): 39.3 ± 1.69 µM
IC50 (Liver Cancer HepG2; 48 h): 75.2 ± 1.39 µM

Cc1c(Br)c(=O)oc2cc(OC(=O)/C=C/c3ccccc3)ccc12 [Compound 8c, (2E)-3-bromo-4-methyl-2-oxo-2H-chromen-7-yl cinnamate]
melting point: 170 °C
IC50 (Lung Cancer A549): 24.3 ± 0.37 µM
IC50 (Leukemia Cancer HL60): 48.1 ± 0.88 µM
IC50 (Normal Liver THLE2): 124 ± 2.12 µM
IC50 (Breast Cancer MCF-7): 67.3 ± 2.03 µM
IC50 (Liver Cancer HepG2; Homo sapiens, HepG2, 48 h): 17.4 ± 0.19 µM

C/C(=N\NC(=O)COc1ccc2c(C)cc(=O)oc2c1)c1ccc(Cl)cc1 [III]
IC50 against HepG2 (HepG2 [1]): 2.84 ± 0.48 µg/mL (≈ 7.38 µM)

Cc1cc(=O)oc2cc(OCC(=O)N/N=C/c3ccc(Br)cc3)ccc12 [IV]
IC50 against HepG2 (HepG2 [1]): 4.67 ± 0.78 µg/mL (≈ 11.2 µM)

CN[C@@H]1C[C@H]2O[C@@](C)([C@@H]1OC)n1c3ccccc3c3c4c(c5c6ccccc6n2c5c31)C(=O)NC4 [Staurosporine, reference compound]
IC50 (Lung Cancer A549): 3.7 ± 0.09 µM
IC50 (Breast Cancer MCF-7): 3.06 ± 0.42 µM

CC(=O)c1cc2c(C)cc(=O)oc2cc1OCCN1CCOCC1 [VI]
GI, colon cancer HCC-2998 (colon cancer HCC-2998): 341.4 µM
GI, leukemia CCRF-CEM (leukemia CCRF-CEM): 627.1 µM
GI, non-small-cell lung cancer HOP-92 [2]: 237.8 µM

Cc1cc(=O)oc2cc(OC(C)/C=C/C3=CC(=O)C(C)(C)O3)ccc12 (centres unmarked) [V]
GI50 [3]: 0.5 ± 0.02 µM

O=C/C=C/c1ccccc1 [cinnamaldehyde]
IC50 (HepG2 [4]): 9.76 ± 0.67 µM

COc1cccc2c1C(=O)c1c(O)c3c(c(O)c1C2=O)C[C@@](O)(C(=O)CO)C[C@@H]3O[C@H]1C[C@H](N)[C@H](O)[C@H](C)O1 [doxorubicin]
IC50 against HepG2 (HepG2 [1]): 2.11 ± 0.13 µg/mL (≈ 3.88 µM)
